“Also recorded” adds a separate entry of the source.
What was measured:
[1] = test system: A549, H510, H345, and N417 lung cancer cell lines; assay: Growth inhibition (MTT, BrdU) in lung cancer cell lines; assay type: cell-based; conditions: all tested cell lines (A549, H510, H345, N417)
Protocol: (§1) Lung cancer cell lines used for PPAR analysis included A549, H510, H345, and N417. The FLAP inhibitor: MK886 and COX inhibitor: indomethacin, and combinations thereof, were used as AA inhibitors. PPARs for the analysis included PGJ2 (γ ligand); ciglitazone (γ agonist); LY171882 (γ receptor activator); and WY 14643 (α activator). In order to analyze PPARs in lung cancer cells, growth inhibition (MTT, BrdU); apoptosis (Caspase 3/7 and M30 IHC); and mRNA Northern analyses were performed.

H345 cell line = assay: Apo-1 Caspase 3/7 apoptosis assay, H345; assay type: cell-based
Protocol: as §1
(§2) Apoptosis was determined at particular time points using the Apo-1Caspase 3/7 assay.

[2] = test system: T47D breast cancer cell line; assay: Proliferation assay, breast cancer cell line T47D; assay type: cell-based; conditions: compared to vehicle control
Protocol: (§3) Breast cancer cell line ZR-75 was grown in the presence of 5 μM inhibitors for 24 and 48 hrs, total RNA was isolated and RT-PCR performed for PPARα and PPARγ using specific primers. Results are presented as percent of control after normalizing with the actin values. The experiment was repeated three times. The error bars indicate standard deviation. […] All values were determined by assessment of % growth inhibition calculated from the optical density value, with a minimum of 6 replicates from at least three different experiments per cell line. The ligands included WY-14643 (open circles); LY 171883 (closed circles); fenofibrate (triangles); clofibrate (diamonds).
(§4) (A) Northern blot analysis for PPARγ (1.8 Kb), of breast cancer cell line T47D treated with 5 μM MK 886 for 6, 12, 24 hrs and untreated control. RNA was isolated as described in Methods, and […] of total RNA was loaded per lane. Ethidium bromide staining of 28S rRNA was used to check for equal loading and RNA integrity (lower panel). (B) RNA isolated from T47D cells treated with 5 μM MK 886 for different time periods were subjected to RT-PCR using specific primers for PPARγ. The PCR products were normalized to actin gene and 18S. PCR products were quantified by densitometry and the data points presented are expressed as percent of control, and represent mean and SEM of three experiments. […]

A549 cell line [3] = assay: M30 immunohistochemistry for apoptosis, A549; assay type: cell-based
Protocol: as §1
(§5) M30 Immunohistochemistry was performed to test for apoptosis in the various lung cancer cell lines. […] Apoptosis was also observed in the H345 and N417 cell lines, but PPAR induction was low and no significant increase in PPAR protein expression was observed when tested in combination with PGJ2. […] In summary, combinations of FLAP inhibitors, cyclooxygenase inhibitors, and PPARγ ligands generally had additive effects in reducing lung cancer cell line growth; this generally correlated with measures of enhanced apoptosis.

[4] = test system: ZR-75 breast cancer cell line; assay: Proliferation assay, breast cancer cell line ZR-75; assay type: cell-based; conditions: ZR-75, compared to vehicle control
Protocol: as §3
Cell lines used in the study were obtained from the American Type Culture Collection (Rockville, Md.). They included MCF-7, ZR-75, T47 D; SKBR-3, and MB-231. The cells were maintained in RPMI-1640, or MEM Zinc option medium, supplemented with 5% fetal bovine serum (FBS), penicillin (50 units/ml) and streptomycin (50 μg/ml) (Life Technologies, Gaithersburg, Md.), in a humidified atmosphere of 95% air and 5% CO2 at 37° C.

PPARγ [5] = assay: Northern analysis, PPARγ mRNA in H345; assay type: cell-based
Protocol: as §1
(§6) Northern analysis was performed with untreated cells and cells treated with AA inhibitors: MK886, indomethacin, or the combination of MK886 and indomethacin. […] There was also no expression after 24 hours of exposure to AA inhibitors, confirming previous Northern analyses. […] In the H510 cell line, no expression for PPARγ was observed.

H510 cell line [6] = assay: Apo-1 Caspase 3/7 apoptosis assay, H510; assay type: cell-based
Protocol: as §1, §2

PPARγ [7] = assay: Northern analysis, PPARγ mRNA in A549; assay type: cell-based
Protocol: as §1, §6

PPARα [8] = assay: RT-PCR for PPARα mRNA in breast cancer cell line ZR-75; assay type: cell-based; conditions: ZR-75, 5 μM, 24 and 48 hours
Protocol: as §3
(§7) Cells were grown for 24 hrs or 48 hrs in the presence or absence of inhibitors at 5 μM concentration. RNA was isolated using the Trizol method (Life Technologies, Gaithersburg, Md.), and RT-PCR was performed using specific primers for PPAR and actin control genes.
(§8) Forward (F) and reverse (R) primers used to detect PPAR cDNAs were: […]
(§9) The ethidium bromide stained image was digitized and the optical density calculated using the NIH Image program. Values were normalized with the actin value obtained with commercially available primers (Clontech Inc., Palo Alto, Calif. ). These experiments were repeated three times.

A549 cell line [9] = assay: Apo-1 Caspase 3/7 apoptosis assay, A549; assay type: cell-based
Protocol: as §1, §2

15-HETE = 15-HETE production after exposure to FLAP inhibitor; assay type: cell-based; conditions: in response to exposure to MK 886
H510 cell line [10] = assay: M30 immunohistochemistry for apoptosis, H510; assay type: cell-based
Protocol: as §1, §5

PPARδ = assay: Northern analysis, PPARδ mRNA in A549; assay type: cell-based
Protocol: as §1, §6

N417 cell line = assay: Apo-1 Caspase 3/7 apoptosis assay, N417; assay type: cell-based
Protocol: as §1, §2

PPARγ [11] = assay: Northern blot analysis for PPARγ in T47D cells; assay type: cell-based, human; conditions: 5 μM MK886, 0, 6, 12, 24 hours
Protocol: as §4, with “experiments. (C) Breast cancer cell line T47D, was incubated with various concentrations of MK886 (circles) and then analyzed using a proliferation assay. After 12 hr incubation, the inhibitors were removed and replaced by media alone (open circles), or media with 4 μM LY 171883 (closed circles). LY 171883 in the presence of media without the FLAP inhibitor is shown (stars).” for “experiments.”
After treatment for the indicated time points (5 μM MK886 at 0, 6, 12, 24 hours), cells were washed with PBS and total RNA was extracted using the RNeasy Mini Kit (QUIAGEN Inc., Valencia, Calif.). […] Equal loading and integrity of RNA was monitored by ethidium bromide staining (FIG. 2A). […]

PPARα [12] = assay: Northern analysis, PPARα mRNA in A549; assay type: cell-based
Protocol: as §1, §6

PPARγ [13] = assay: Semi-quantitative RT-PCR for PPARγ in T47D cells; assay type: cell-based; conditions: 5 μM MK886, different time periods
Protocol: (A) Northern blot analysis for PPARγ (1.8 Kb), of breast cancer cell line T47D treated with 5 μM MK 886 for 6, 12, 24 hrs and untreated control. RNA was isolated as described in Methods, and […] of total RNA was loaded per lane. Ethidium bromide staining of 28S rRNA was used to check for equal loading and RNA integrity (lower panel). (B) RNA isolated from T47D cells treated with 5 μM MK 886 for different time periods were subjected to RT-PCR using specific primers for PPARγ. The PCR products were normalized to actin gene and 18S. PCR products were quantified by densitometry and the data points presented are expressed as percent of control, and represent mean and SEM of three experiments. (C) Breast cancer cell line T47D, was incubated with various concentrations of MK886 (circles) and then analyzed using a proliferation assay. After 12 hr incubation, the inhibitors were removed and replaced by media alone (open circles), or media with 4 μM LY 171883 (closed circles). LY 171883 in the presence of media without the FLAP inhibitor is shown (stars). After an additional 24 hr incubation time, the experiments were terminated. All values were determined by assessment of % growth inhibition calculated from the optical density value, with a minimum of 6 replicates from at least three different experiments. The error bars indicate standard deviation. […]

PPARγ [14] = assay: RT-PCR for PPARγ mRNA in breast cancer cell line ZR-75; assay type: cell-based; conditions: ZR-75, 5 μM, 24 and 48 hours
Protocol: as §3, §7, §8, §9

With `CC1(COc2ccc(CC3SC(=O)NC3=O)cc2)CCCCC1` (racemic) [ciglitazone, (±)-5-[4-(1-Methylcyclohexylmethoxy)-benzyl] thiazolidine-2,4-dione] the “growth of lung cancer cell lines” value [1] was “reduced growth in a dose dependent manner” and the “apoptosis (Caspase 3/7)” value (H345 cell line) was “induced apoptosis”.
In the case of `CCCc1c(OCCCCc2nnn[nH]2)ccc(C(C)=O)c1O` [LY 171883], the “breast tumor cell growth” value [2] is reported as “dose dependent growth reduction”, the “apoptosis (Caspase 3/7)” value (H345 cell line) is reported as “neither LY171882 or WY 14643 (α activator) induced apoptosis” and the “apoptosis (M30 immunohistochemistry)” value (A549 cell line [3]) is reported as “Some apoptosis also occurred”. For the same molecule, the “breast tumor cell growth” value [4] was “dose dependent growth reduction”.
`CC(C)c1ccc2c(c1)c(SC(C)(C)C)c(CC(C)(C)C(=O)O)n2Cc1ccc(Cl)cc1` [MK886, 3-[1-(4-chlorobenzyl)-3-t-butyl-thio-5-isopropylindol-2-yl]-2,2-dimethylpropanoic acid] was tested, and the “PPARγ expression (Northern)” value (PPARγ [5]) was “PPARγ expression was induced”, the “apoptosis (Caspase 3/7)” value (H510 cell line [6]) was “two fold induction of apoptosis” and the “PPARγ mRNA (Northern)” value (PPARγ [7]) was “Up-regulation of PPARγ”. For the same molecule, the “growth of lung cancer cell lines” value [1] was “inhibited all tested cell lines in a dose dependent manner ranging from 0.25 to 2.0 μM”, the PPARα expression (PPARα [8]) was “up-regulation” and the “apoptosis (Caspase 3/7)” value (H345 cell line) was “induced apoptosis”. The “apoptosis (Caspase 3/7)” value (A549 cell line [9]) was “increased apoptosis”, the 15-HETE production (15-HETE) was “large increase” and the “apoptosis (M30 immunohistochemistry)” value (H510 cell line [10]) was “apoptosis in the H510 cell line was observed”. The “PPARδ mRNA (Northern)” value (PPARδ) was “some mRNA observed for PPARδ”, the “apoptosis (Caspase 3/7)” value (N417 cell line) was “two fold increase in apoptosis” and the “PPARγ expression (Northern blot)” value (PPARγ [11]) was “induction of PPARγ is evident within six hours; also recorded: PPARγ expression levels increase”. For the same molecule, the “PPARα mRNA (Northern)” value (PPARα [12]) was “no mRNA for PPARα”, the “PPARγ induction (semi-quantitative RT-PCR)” value (PPARγ [13]) was “induction of PPARγ is more protracted” and the PPARγ expression (PPARγ [14]) was “up-regulation”.
With `CC(Cc1ccc(O)c(O)c1)C(C)Cc1ccc(O)c(O)c1` (stereo not drawn) [NDGA, Nordihydroguaiaretic acid] the PPARα expression (PPARα [8]) was “up-regulation” and the PPARγ expression (PPARγ [14]) was “up-regulation”.
In the case of `CCCCC/C=C/C=C1/C(=O)C=C[C@@H]1C/C=C\CCCC(=O)O` [PGJ2, 15-Deoxy-Δ^12,14-Prostaglandin J2], the “PPARγ expression (Northern)” value (PPARγ [5]) is reported as “down regulated mRNA”, the “PPARγ mRNA (Northern)” value (PPARγ [7]) is reported as “mRNA decreases to those levels observed with control” and the “growth of lung cancer cell lines” value [1] is reported as “reduced growth in a dose dependent manner”. For the same molecule, the “apoptosis (M30 immunohistochemistry)” value (H510 cell line [10]) was “apoptosis in the H510 cell line was observed”.
For `CCOC(=O)C(C)(C)Oc1ccc(Cl)cc1` [clofibrate, 2-(4-chlorophenoxy)-2-methylpropanoic acid ethyl ester], the “breast tumor cell growth” value [2] was “dose dependent growth reduction” and the “breast tumor cell growth” value [4] was “dose dependent growth reduction”.
For `COc1ccc2c(c1)c(CC(=O)O)c(C)n2C(=O)c1ccc(Cl)cc1` [indomethacin], the “apoptosis (Caspase 3/7)” value (H510 cell line [6]) was “two fold induction of apoptosis”, the “PPARγ mRNA (Northern)” value (PPARγ [7]) was “Up-regulation of PPARγ” and the “growth of lung cancer cell lines” value [1] was “no effect on growth, even at a concentration of greater than 10 μM”. The “apoptosis (M30 immunohistochemistry)” value (H510 cell line [10]) was “apoptosis in the H510 cell line was observed”.

— patent US6756399B2, “Use of lipoxygenase inhibitors and PPAR ligands as anti-cancer therapeutic and intervention agents” (The United States of America as represented by the …, priority 2001, dated 2004)
